Patent publication US11076595B2, “1-(n,n-disubstituted carbamoyl) 4-(substituted sulfonyl)triazolin-5-one derivative, 4-(n,n-disubstituted carbamoyl) 1-(substituted sulfonyl)triazolin-5-one derivative, and herbicide containing said derivative as active ingredient” (HOKKO CHEMICAL INDUSTRY CO., LTD., priority 2017, dated 2021)

Columns and labels:
Type in all cases: in vivo
Scirpus juncoides [1] = assay: Test Example 12: herbicidal effect test by treatment during growing period in paddy field; conditions: 120 g/10a; treatment seven days after sowing in flooded paddy pot; assessed 14 days after treatment
Description: (§1) This test was performed with two replications per one formulation concentration plot, and 14 days after the formulation treatments, the weed suppression rate (%) was determined according to the following equation (Math. 2). Weed suppression rate (%)=(1−average dry weight (g) of plants in treated plots/average dry weight (g) of plants in untreated plots)×100 [Math. 2]
(§2) A Wagner pot having an area of 1/10000 are was filled with paddy field soil and after adding water, a chemical fertilizer (N:P:K=17:17:17) was mixed, followed by puddling. Thereafter, 30 grains of each of Echinochloa crus-galli, broad-leaved weed (Lindernia pyxidaria, Monochoria vaginalis) and Scirpus juncoides seeds were sown to a depth of 0 to 1 cm. Immediately after the sowing, the pot was flooded, and the depth of water was kept at about 3 cm. The pot was subsequently managed in a glass greenhouse. Seven Days after sowing, an emulsifiable concentrate prepared according to Formulation Example 15 by using the compound shown in Table 10 below was diluted with water, and a predetermined amount of the water-diluted formulation was added dropwise. The application rate of the active ingredient, by conversion, corresponded to 120 g per 10 are. The test was performed with two replications per one formulation concentration plot, and 14 days after the formulation treatments, the weed suppression rate (%) was determined according to the equation (Math. 2).

Lindernia pyxidaria [2] = assay: as above; conditions: 120 g/10a; treatment seven days after sowing in flooded paddy pot; assessed 14 days after treatment
Description: as §1, §2

Monochoria vaginalis [3] = assay: as above; conditions: 120 g/10a; treatment seven days after sowing in flooded paddy pot; assessed 14 days after treatment
Description: as §1, §2

Echinochloa crus-galli [4] = assay: as above; conditions: 120 g/10a; treatment seven days after sowing in flooded paddy pot; assessed 14 days after treatment
Description: as §1, §2

Scirpus juncoides [5] = assay: Test Example 11: herbicidal effect test by soil treatment in paddy field; conditions: 120 g/10a active ingredient, 14 days after treatment
Procedure, shortened: (§3)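 Weed suppression rate (%) was calculated as (1 − mean treated dry weight / mean untreated dry weight) × 100 at 14 days after treatment, two replicates per plot. Seeds were sown at 0–1 cm in flooded (about 3 cm) puddled paddy soil and treated immediately at 120 g active ingredient per 10 are.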

Lindernia pyxidaria [6] = assay: as above; conditions: 120 g/10a active ingredient, 14 days after treatment
Procedure, shortened: as §3

Monochoria vaginalis [7] = assay: as above; conditions: 120 g/10a active ingredient, 14 days after treatment
Procedure, shortened: as §3

Echinochloa crus-galli [8] = assay: as above; conditions: 120 g/10a active ingredient, 14 days after treatment
Procedure, shortened: as §3

Compound	Weed suppression rate (%) Scirpus juncoides (Scirpus juncoides [1]) [%]	Weed suppression rate (%) Lindemia pyxidaria (Lindernia pyxidaria [2]) [%]	Weed suppression rate (%) Monochoria vaginalis (Monochoria vaginalis [3]) [%]	Weed suppression rate (%) Echinochloa crus-galli (Echinochloa crus-galli [4]) [%]	Weed suppression rate (%) Scirpus juncoides (Scirpus juncoides [5]) [%]	Weed suppression rate (%) Lindemia pyxidaria (Lindernia pyxidaria [6]) [%]	Weed suppression rate (%) Monochoria vaginalis (Monochoria vaginalis [7]) [%]	Weed suppression rate (%) Echinochloa crus-galli (Echinochloa crus-galli [8]) [%]
CC(C)N(C(=O)n1cnn(S(=O)(=O)c2ccc(C(C)(C)C)cc2)c1=O)c1cccc(F)c1F [Compound 11-681]	100	90	100	100	100	90	80	100
CC(C)N(C(=O)n1cnn(S(=O)(=O)C2CC2)c1=O)c1c(F)c(F)cc(F)c1F [Compound 11-197]	90	80	100	100	100	100	70	100
CC(C)S(=O)(=O)n1ncn(C(=O)N(C)c2ccc(F)cc2F)c1=O [Compound 11-1127]	100	70	70	100	80	80	70	100
CC(C)N(C(=O)n1cnn(S(C)(=O)=O)c1=O)c1ccc(F)c(F)c1F [Compound 11-15]	100	60	60	70	60	70	60	90
Cc1cc(C)c(S(=O)(=O)n2ncn(C(=O)N(c3cccc(F)c3F)C(C)C)c2=O)c(C)c1 [Compound 11-862]	100	80	100	100	100	100	100	100
CC(C)N(C(=O)n1cnn(S(=O)(=O)c2ccccc2Cl)c1=O)c1c(F)cc(F)cc1F [Compound 11-516]	70	70	80	100	90	90	80	100
CC(C)N(C(=O)n1cnn(S(=O)(=O)C2CC2)c1=O)c1ccc(Cl)cc1Br [Compound 11-210]	90	80	80	90	90	90	80	90
CCN(C(=O)n1cnn(S(=O)(=O)c2ccccc2)c1=O)C1CCCCC1 [Compound 11-353]	90	80	80	90	90	80	80	90
Cc1cc(C)c(S(=O)(=O)n2ncn(C(=O)N(c3ccccc3F)C(C)C)c2=O)c(C)c1 [Compound 11-853]	90	80	80	90	90	90	80	100
CC(C)N(C(=O)n1cnn(S(=O)(=O)c2cccc(Cl)c2)c1=O)c1ccc(F)c(F)c1F [Compound 11-553]	30	70	60	100	30	90	70	100
CC(C)N(C(=O)n1cnn(S(=O)(=O)c2ccc(F)cc2)c1=O)c1c(F)cc(F)cc1F [Compound 11-479]	80	70	80	100	100	100	80	100
CC(C)N(C(=O)n1cnn(S(C)(=O)=O)c1=O)c1ccccc1F [Compound 11-2]	90	90	80	90	90	80	80	90
CC(C)N(C(=O)n1cnn(S(=O)(=O)c2ccccc2F)c1=O)c1ccc(C(F)(F)F)cc1F [Compound 11-419]	60	60	80	90	70	100	60	100
